Active and inactive are the calls of the source. A value given as a limit tells only on which side of the number the result lay.

The nature of series [1]: Toxicity in BALB/c nude mouse xenografted with U-87 MG cells assessed as kidney damage at 1.5 to 3 mg/kg, po administered every other day for 18 days in presence of 40 mg/kg TMZ by H and E staining based assay. It counts as organism-based. The conditions noted are these: in vivo, 432 h, dose 1.5-3 mg/kg, time 18 day.
Series [2] can be described thus: Aqueous stability of compound assessed as compound remaining measured at 240 mins by HPLC assay. The format is physicochemical. The conditions noted are these: aqueous solution, read-out: Stability.
Series [3] can be described thus: MRT(0 to infinity) in Sprague-Dawley rat at 5 mg/kg, iv measured upto 24 hrs by LC-MS/MS method. The format is ADME, organism-based. Particulars: in vivo.
Series [4] is described as follows: Stability of compound in stimulated intestinal fluid assessed as remaining compound after 24 hrs by HPLC method. It counts as ADME. The conditions noted are these: simulated intestinal fluid, read-out: Stability.
In series [5] the test system is U-87 MG. Briefly: Cytotoxicity against human U-87 MG cells incubated for 48 hrs by CCK8 assay. It counts as functional, cell-based, U-87MG ATCC.
Series [6] can be described thus: Half-life in Sprague-Dawley rat at 5 mg/kg, iv measured upto 24 hrs by LC-MS/MS method. It counts as ADME, organism-based. The conditions noted are these: in vivo.
Series [7] relates to U-87 MG. Briefly: Antitumor activity against human U-87 MG cells xenografted in BALB/c nude mouse assessed as increase in p53 expression at 3 mg/kg, po measured after 4 hrs by Western blotting analysis. The format is functional, organism-based. Particulars: U-87MG ATCC.
Series [8] can be described thus: Toxicity in BALB/c nude mouse xenografted with U-87 MG cells assessed as liver damage at 1.5 to 3 mg/kg, po administered every other day for 18 days in presence of 40 mg/kg TMZ by H and E staining based assay. The format is organism-based. The conditions noted are these: in vivo, 432 h, dose 1.5-3 mg/kg, time 18 day.
Series [9] has as its system U-87 MG. As to the kind of experiment: Antitumor activity against human U-87 MG cells xenografted in BALB/c nude mouse assessed as tumor growth inhibition at 3 mg/kg, po administered every other day for 18 days in presence of 40 mg/kg TMZ. The format is functional, U-87MG ATCC. The conditions noted are these: 432 h, time 18 day, read-out: TGI.
Series [10] in a line: Cytotoxicity against HUVECs incubated for 48 hrs by CCK8 assay. The format is toxicity, cell-based. Particulars: human, HUVEC cells.
The subject of series [11] is HCT-116. As to the kind of experiment: Cytotoxicity against human HCT-116 cells incubated for 48 hrs by CCK8 assay. The conditions noted are these: HCT-116, 48 h. It counts as functional, cell-based. A general note: Tetrazolium dyes change colour on reduction, which living cells bring about.
Series [12] in a line: Stability of compound in stimulated gastric fluid assessed as remaining compound after 24 hrs by HPLC method. The format is ADME. The conditions noted are these: simulated gastric fluid, read-out: Stability.
Series [13] in a line: Toxicity in BALB/c nude mouse xenografted with U-87 MG cells assessed as lung damage at 1.5 to 3 mg/kg, po administered every other day for 18 days in presence of 40 mg/kg TMZ by H and E staining based assay. The format is organism-based. The conditions noted are these: in vivo, 432 h, dose 1.5-3 mg/kg, time 18 day.
Series [14] in a line: Apparent clearance in Sprague-Dawley rat at 5 mg/kg, iv measured upto 24 hrs by LC-MS/MS method. The conditions noted are these: in vivo, read-out: CL(app) (converted). It counts as ADME, organism-based.
Series [15] in a line: Apparent volume of distribution in Sprague-Dawley rat at 25 mg/kg, po measured upto 24 hrs by LC-MS/MS method. It counts as ADME, organism-based. Particulars: in vivo.
The nature of series [16]: MRT(0 to infinity) in Sprague-Dawley rat at 25 mg/kg, po measured upto 24 hrs by LC-MS/MS method. It counts as ADME, organism-based. The conditions noted are these: in vivo.

Take `O=C(O)[C@@H]1[C@H](C(=O)n2ccc3ccccc32)[C@H]2CC[C@@H]1O2`: the Activity result in series [1], in series [8] and in series [13] was “Non-Toxic” in each case. Also, the remaining at 4 h in [2] turned out to be 99.8%. For the same molecule, the values for the MRT inf in series [3] and in [16] were 5.52 h and 5 h, respectively. The remaining at 24 h in [4] is 96%; in series [12], 92%. For the same molecule, the IC50 turned out to be 70.1 µM in series [5] and 26.5 µM in [11]. Further, in series [6], the half-life is 2.41 h. Also, the outcome in series [7] was Active. In addition, the inhibition in vivo at 3 mg/kg in series [9] worked out at 87.7%. Besides, the IC50 at 48 h in series [10] was > 200 µM. Also, the clearance in series [14] is 6.3 mL/min/kg. Moreover, in [15], the Vz came out at 2.62804 L/kg.

As a reminder, the MRT inf is a mean duration of stay, worked out from the concentration-time curve. As a reminder, the IC50 is the midpoint of a concentration-inhibition curve. Read a high IC50 as a need for much substance. For orientation: half-life means the time needed for the level to fall by half in the phase considered. Low readings indicate fast loss, high ones slow loss.

Values taken from ChEMBL document CHEMBL5584313, “Design and Synthesis of 7-Oxabicyclo[2.2.1]heptane-2,3-dicarboxylic Acid Derivatives as PP5 Inhibitors To Reverse Temozolomide Resistance in Glioblastoma Multiforme” (J Med Chem, 2024).
